Results as given in patent US7923204B2, “Forward mutation assay based on 5-fluorouracil resistance” (priority 2003, dated 2011).
Read-outs that look alike come from different tables or passages of the source. Marks after values point to notes of the source that are not given here.

Tests used:
[1] = test system: FU100
Protocol: Briefly, in order to practice the disclosed mutation assay one-ml aliquots of exponentially growing bacteria are exposed to the test agent for two hours in the presence and absence of a metabolic activation system, such as a mammalian (i.e., rat, hamster or human) liver homogenate (S9-fraction or liver microsomal enzymes). The aliquots are then diluted, allowed to grow for 3 hours, and assessed for treatment-related toxicity/inhibition by optical density. The cultures are subsequently diluted a second time and grown overnight to permit full recovery from toxicity and to allow expression of the FU^R phenotype. Samples of the cultures are then plated in 384-well microtiter dishes in the presence of 2 μg/ml 5-FU and the pH-sensitive indicator bromcresol purple. Three days later positive wells containing FU^R colonies are detected by their yellow color and enumerated. Treated cultures are then compared to control plates to determine genotoxic activity.
For each mutation experiment, two frozen 1-ml aliquots of FU100 were quickly thawed in a 37° C. water bath, pelleted by centrifugation, washed to remove the DMSO, and suspended in 35 mL of MinE medium. The culture was shaken for approximately 1 hour at 37° C. until the optical density at 600 nm (OD600) reached the target density of 0.3. A 16-ml aliquot of culture was added to each of two 50-ml tubes containing 3.6 ml of a NADPH-generating system (5.6 mM glucose-6-phosphate, 4.5 mM NADP+, 5 mM sucrose, 110 mM Na2HPO4, 37 mM KCl, and 9 mM MgCl2) and either 0.4 ml rat liver S-9 or an equal volume of sodium phosphate buffer. Aliquots of these mixtures were distributed into three 12-well cluster dishes (one for exposure with S-9, one for exposure without S-9, one for controls with and without S-9), and exposed to test compounds as 1-ml aliquots for 2 hour as outlined in FIG. 1.
Following treatment, the 1-ml aliquots were transferred into 9 ml of warm MinE medium in a 50 ml tube and incubated at 37° C. on a rotary wheel for 3 hours. Next, 20 ml of medium was added to each culture tube and 0.25 ml aliquots were transferred to a 96-well plate for OD600 measurements to assess toxicity (OD Day 1). […] Bulk cultures were then incubated overnight in the dark at 30° C. to permit recovery from toxicity and to allow time for the test cells to express the FU^R phenotype.
The next day, OD600 was again assessed to adjust cell number plated on 5-FU plates (OD Day 2; 100 μl of the culture diluted with 150 μl MinE medium for OD600 measurements). For plating, a 35 μl aliquot of each culture was added to 31.4 mL of MinE medium with 2 μg/ml of 5-FU and 10 μg/ml of bromcresol purple. The mixture was then dispersed into a 384-well plate (75 μl/well) and placed at 37° C. for 3 days in a humidified incubator.
The data obtained for both survival (OD day 1), relative number of cells plated (OD day 2), and number of positive wells were imported into an Excel template.
Table 8 summarizes the criteria for positive result in 5-FU assay using the FU100 tester strain described and claimed herein. […] A positive compound was defined when two or more doses met the aforementioned criteria.

[2] = test system: chromosome aberrations; settings: cited from earlier work
[3] = test system: sister chromatid exchange; settings: cited from earlier work
[4] = test system: mouse lymphoma; settings: cited from earlier work
[5] = test system: FU100; remark: listed apart in the source
[6] = test system: Salmonella; settings: cited from earlier work
[7] = test system: micronucleus; settings: cited from earlier work
[8] = test system: TA100, TA1535
Text: As stated above, the Ames Salmonella his+ plate incorporation assay evaluates genotoxic activity (mutagenicity) of chemical compounds on a set of genetically modified bacterial tester strains that are auxotrophic for the amino acid histidine. In practice, the Ames Assay simultaneously evaluates the genotoxic activity of a potential mutagen on several different target genes. The standard Ames Assay utilizes several different tester strains, each with a distinct mutation (e.g., transition, frameshift etc.) in one of the genes comprising the histidine (his) biosynthetic operon. The his operon encodes enzymes required for the biosynthesis of the amino acid histidine. For example, strain TA98 contains the hisD3052 allele which is reverted by a frameshift mutation, while strain TA1535 contains the hisG46 allele which is reverted by transition and transversion mutations. More specifically, the Ames Assay evaluates the ability of a chemical agent to increase the rate of reversion of auxotrophic strains of Salmonella to prototrophy.

[9] = in the presence of S9 activation (+), FU100, 2 h exposure
[10] = without S9 activation (−), FU100, 2 h exposure
[11] = NTP Results Report 12 Aug. 2002
[12] = without S9 activation (−), lowest dose tested giving a positive response
[13] = in the presence of S9 activation (+), approximate, first dose with greater than 50% survival by optical density on Day 1
[14] = without S9 activation (−), approximate, first dose with greater than 50% survival by optical density on Day 1
[15] = NTP Results Report 12 Aug. 2002 or cited reference (footnotes f, g, i, j)

Row | Compound | Results (5-FU assay) [1, 9] | Results (5-FU assay) [1, 10] | NTP Results: CA = chromosome aberrations [2, 11] | NTP Results: SC = sister chromatid exchange [3, 11] | NTP Results: ML = mouse lymphoma [4, 11] | LD50 [5, 13] | LD50 [5, 14] | NTP Results: SA = Salmonella [6, 15] | Results (5-FU assay) [1] | NTP Results: SA = Salmonella [6] | NTP Results: CA = chromosome aberrations [2] | NTP Results: SC = sister chromatid exchange [3] | NTP Results: ML = mouse lymphoma [4] | response in the 5-FU Assay (in words) [1] | also measured
1 | Oc1ccc(Cl)cc1Cl [2,4-Dichlorophenol] | Neg | Neg | − | + | + |  |  |  |  |  |  |  |  |  | 
2 | Nc1ccc([N+](=O)[O-])cc1O [2-Amino-5-nitrophenol] | Neg | Pos | (SA+, CA+, SC+, ML+) | (SA+, CA+, SC+, ML+) | (SA+, CA+, SC+, ML+) | >150 µg/mL | >300 µg/mL | (SA+, CA+, SC+, ML+) |  |  |  |  |  |  | Lowest Positive Dose [1, 12]: 2.8 µg/mL
3 | Nc1ncn([C@@H]2O[C@H](CO)[C@@H](O)[C@H]2O)c(=O)n1 [5-Azacytidine] |  |  |  |  |  | >5 µg/mL | >3 µg/mL |  | Pos | (SA+, CA+, SC+, ML+, MN+) | (SA+, CA+, SC+, ML+, MN+) | (SA+, CA+, SC+, ML+, MN+) | (SA+, CA+, SC+, ML+, MN+) |  | NTP Results: MN = micronucleus [7]: (SA+, CA+, SC+, ML+, MN+)
4 | Oc1cccc2cccnc12 [8-Hydroxyquinoline] |  |  |  |  |  |  |  |  |  | (SA+, CA+^w, SC+, ML+, MN−) | (SA+, CA+^w, SC+, ML+, MN−) | (SA+, CA+^w, SC+, ML+, MN−) | (SA+, CA+^w, SC+, ML+, MN−) | positive compounds in toxic concentrations | NTP Results: MN = micronucleus [7]: (SA+, CA+^w, SC+, ML+, MN−)
5 | COc1ccc(O)c(C(C)(C)C)c1 [Butylated Hydroxyanisole] | Neg | Neg |  |  |  | >30 µg/mL | >30 µg/mL | (SA−, MN−) |  |  |  |  |  |  | NTP Results: MN = micronucleus [7, 11]: (SA−, MN−)
6 | CCCCC(CC)COC(=O)c1ccccc1C(=O)OCC(CC)CCCC (centres unmarked) [Di (2-ethylhexyl) phthalate] |  |  |  |  |  | >5000 µg/mL | >5000 µg/mL |  | Neg | (SA−, CA−, SC+−?, ML−, MN?) | (SA−, CA−, SC+−?, ML−, MN?) | (SA−, CA−, SC+−?, ML−, MN?) | (SA−, CA−, SC+−?, ML−, MN?) | negative/non-toxic | NTP Results: MN = micronucleus [7]: (SA−, CA−, SC+−?, ML−, MN?)
7 | CC/C(=C(/CC)c1ccc(O)cc1)c1ccc(O)cc1 [Diethylstilbestrol] |  |  | + | − | + |  |  |  | Neg | (SA−, CA+, SC−, ML+) |  |  |  |  | 
8 | OCCO [Ethylene Glycol] |  |  |  |  |  |  |  |  | Neg | (SA−, CA−, SC−, ML−) | (SA−, CA−, SC−, ML−) | (SA−, CA−, SC−, ML−) | (SA−, CA−, SC−, ML−) |  | LD50 ([5]; Salmonella typhimurium): >5000 µg/mL
9 | OO [Hydrogen Peroxide] |  |  |  |  |  |  |  |  | Pos | (SA+^w) |  |  |  | positive compounds in toxic concentrations | Lowest Positive Dose ([1]; Salmonella typhimurium): 3 µg/mL; Results (5-FU assay) ([1]; s9): Neg; response in the 5-FU Assay (in words) ([1]; text and figure legend (FIG. 6), with or without S9): easy to detect; response in the standard Ames assay (in words) [8]: weak or equivocal response
10 | CC(C)CON=O [Isobutyl Nitrite] |  |  | (SA+, CA+, SC+, MN+) | (SA+, CA+, SC+, MN+) |  |  |  | (SA+, CA+, SC+, MN+) | Pos |  |  |  |  | positive compounds in toxic concentrations | NTP Results: MN = micronucleus [7, 11]: (SA+, CA+, SC+, MN+)
11 | CC1CCC(C(C)C)C(O)C1 (centres unmarked) [Menthol] | Neg | Neg | (SA−, CA−, SC−, ML−, MN−) | (SA−, CA−, SC−, ML−, MN−) | (SA−, CA−, SC−, ML−, MN−) | >9 µg/mL | >16 µg/mL | (SA−, CA−, SC−, ML−, MN−) |  |  |  |  |  |  | NTP Results: MN = micronucleus [7, 11]: (SA−, CA−, SC−, ML−, MN−)
12 | O=C1CN(/N=C/c2ccc([N+](=O)[O-])o2)C(=O)N1 [Nitrofurantoin] |  |  |  |  |  |  |  |  | Pos | (SA+, CA+, SC+, ML+, MN−) | (SA+, CA+, SC+, ML+, MN−) | (SA+, CA+, SC+, ML+, MN−) | (SA+, CA+, SC+, ML+, MN−) |  | Lowest Positive Dose ([1]; Salmonella typhimurium): 0.1 µg/mL; LD50 ([5]; Salmonella typhimurium): >1 µg/mL; NTP Results: MN = micronucleus [7]: (SA+, CA+, SC+, ML+, MN−)
13 | Oc1ccccc1 [Phenol] |  |  |  |  |  |  |  |  | Neg | (SA−, CA+, SC+, ML+) | (SA−, CA+, SC+, ML+) | (SA−, CA+, SC+, ML+) | (SA−, CA+, SC+, ML+) | negative/toxic | 
14 | COC(=O)[C@H]1[C@H]2C[C@@H]3c4[nH]c5cc(OC)ccc5c4CCN3C[C@H]2C[C@@H](OC(=O)c2cc(OC)c(OC)c(OC)c2)[C@@H]1OC [Reserpine] | Neg | Neg |  | − | − | >1500 µg/mL | >1500 µg/mL | − |  |  |  |  |  |  | NTP Results: MN = micronucleus [7, 11]: −
15 | C=CCc1ccc2c(c1)OCO2 [Safrole] |  |  |  |  |  | >50 µg/mL | >60 µg/mL |  | Neg | (SA−, CA−, SC+ ML+) | (SA−, CA−, SC+ ML+) | (SA−, CA−, SC+ ML+) | (SA−, CA−, SC+ ML+) |  | 
16 | [N-]=[N+]=[N-] [Sodium Azide] | Pos^w | Pos^w | − | + |  | >30 µg/mL | >50 µg/mL | + |  |  |  |  |  |  | concentration producing a positive response in the 5-FU Assay ([1]; S9 condition not stated): greater than 90 μg/ml; Lowest Positive Dose ([1]; in the presence of S9 activation (+), lowest dose tested giving a positive response): 90 µg/mL; Lowest Positive Dose [1, 12]: 160 µg/mL; response in the standard Ames assay (in words) ([8]; TA100 or TA1535, plate incorporation or liquid suspension): extremely sensitive
